Experimental data reported in PMC9929129, “Towards Translation of PqsR Inverse Agonists: From In Vitro Efficacy Optimization to In Vivo Proof‐of‐Principle” (Advanced Science, 2023).
“And” between values parts separate entries of the source, which are not always exact repeats. Identical values can stand only once.

Assays:
[1] = test system: 14 PA clinical isolates from bronchiectasis patients; assay: Pyocyanin inhibition assay in clinical isolates; assay type: cell-based, Pseudomonas aeruginosa; details: 2 × 10^−6 M 24, LB-medium, 16 h
Procedure: Pyoverdine determinations. Precultures of each strain were grown 20 h at 37°C in M9 minimal […]
with 30 mM succinate, 2 mM MgSO , 10 μM FeSO and 2.5 mL L−1 of trace elements solution.[10] Next, […]
5 µl of each culture were transferred to 10 ml of M9 minimal medium devoid of iron and trace element solution, and cultured again for 24 h at 37°C with constant shaking. After incubation, the OD600 of the cultures was determined: The cell contained in 1 mL medium were harvested by centrifugation (5 min; 14,000 rpm) and the absorbance at 405 nm (A405nm) of 0.8 ml of the supernatant was determined spectrophotometrically and normalized to the OD600 of the culture measured before (i.e. A405nm, OD600-1). PA14 and PAO1 were also assayed as controls. The experiments were carried out at least in triplicates.
Pyocyanin inhibition assay. The inhibition of pyocyanin production in the clinical isolates (CIs) and the type strains (PA14 and PAO1) was tested by the treatment of LB-grown cultures incubated for 16 h at 37°C with constant shaking with 2 µM of 24/DMSO or with 2 µl of DMSO as control. Pyocyanin extraction and quantification were carried out as described in section 1.2.2. Pyocyanin concentrations (μg mL −1) were calculated by multiplication of its absorbance at 520 nm with a […]
correction factor of 17.072, and normalized to the OD600 of the culture.

[2] = Metabolic stability in mouse hepatocytes; assay type: in vitro ADME; details: read-out: Mouse hepatocytes t½
CYP3A4 = biological target: T1, CYP3A4 (Homo sapiens, UniProt P08684); assay: Cytochrome P450 inhibition assay, CYP3A4; assay type: in vitro ADME
T1 construct: Cyprotex
T1 sequence (P08684 whole entry): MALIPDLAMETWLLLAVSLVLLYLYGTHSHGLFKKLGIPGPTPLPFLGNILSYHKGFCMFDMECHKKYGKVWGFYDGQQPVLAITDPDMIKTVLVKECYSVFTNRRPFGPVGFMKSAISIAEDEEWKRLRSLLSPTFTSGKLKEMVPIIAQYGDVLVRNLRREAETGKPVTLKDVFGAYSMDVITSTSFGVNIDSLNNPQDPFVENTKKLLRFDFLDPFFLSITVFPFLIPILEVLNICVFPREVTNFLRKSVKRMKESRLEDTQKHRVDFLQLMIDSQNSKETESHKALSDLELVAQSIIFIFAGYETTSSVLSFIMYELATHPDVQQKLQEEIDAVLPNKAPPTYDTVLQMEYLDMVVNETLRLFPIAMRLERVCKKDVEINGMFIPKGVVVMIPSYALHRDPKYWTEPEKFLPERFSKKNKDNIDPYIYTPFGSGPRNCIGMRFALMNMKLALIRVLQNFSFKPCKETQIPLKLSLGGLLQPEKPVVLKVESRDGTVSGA
Procedure: (§1) 1.4.4 Pharmacokinetic and off-target functional assays (Cyprotex)
(§2) Compound 24 was assayed at Cyprotex in functional assays for interference with important off-targets as well as important pharmacokinetic parameters. With the exception of plasma protein binding, a dose-response relationship was studied in order to calculate IC50 values.
(§3) Table S10. Information on in vitro ADMET assays performed at Cyprotex. […]
(§4) An increase in the number of colonies of at least two-fold over baseline (mean + SD of the vehicle control) and a dose response indicate a positive response. An […]
(§5) different from the vehicle control.
(§6) Where indicated, S9 fraction from the livers of Aroclor 1254-treated rats were included in the incubation at a final concentration of 4.5%. A NADPH-regenerating system was also included to ensure a steady supply of reducing equivalents.

CYP2D6 = biological target: T2, CYP2D6 (Homo sapiens, UniProt P10635); assay: Cytochrome P450 inhibition assay, CYP2D6; assay type: in vitro ADME; details: Metabolic activity
T2 construct: Cyprotex
T2 sequence (P10635 whole entry): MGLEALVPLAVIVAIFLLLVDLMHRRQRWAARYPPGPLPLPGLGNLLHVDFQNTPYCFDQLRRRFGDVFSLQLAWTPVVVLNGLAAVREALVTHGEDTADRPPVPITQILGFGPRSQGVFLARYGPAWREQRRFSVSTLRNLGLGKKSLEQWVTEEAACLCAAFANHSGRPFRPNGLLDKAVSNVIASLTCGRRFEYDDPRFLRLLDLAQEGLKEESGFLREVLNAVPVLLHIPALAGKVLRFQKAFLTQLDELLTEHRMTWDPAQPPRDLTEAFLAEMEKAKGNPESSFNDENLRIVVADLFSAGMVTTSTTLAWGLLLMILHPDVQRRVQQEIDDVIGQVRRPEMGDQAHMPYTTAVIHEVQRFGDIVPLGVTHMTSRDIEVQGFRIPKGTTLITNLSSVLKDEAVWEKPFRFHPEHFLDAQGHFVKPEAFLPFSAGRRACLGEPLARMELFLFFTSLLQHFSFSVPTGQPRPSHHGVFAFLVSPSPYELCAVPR
Procedure: as §1, §2, §3, §4, §5, §6

CYP2C9 = biological target: T3, CYP2C9 (Homo sapiens, UniProt P11712); assay: Cytochrome P450 inhibition assay, CYP2C9; assay type: in vitro ADME; details: Metabolic activity
T3 construct: Cyprotex
T3 sequence (P11712 whole entry): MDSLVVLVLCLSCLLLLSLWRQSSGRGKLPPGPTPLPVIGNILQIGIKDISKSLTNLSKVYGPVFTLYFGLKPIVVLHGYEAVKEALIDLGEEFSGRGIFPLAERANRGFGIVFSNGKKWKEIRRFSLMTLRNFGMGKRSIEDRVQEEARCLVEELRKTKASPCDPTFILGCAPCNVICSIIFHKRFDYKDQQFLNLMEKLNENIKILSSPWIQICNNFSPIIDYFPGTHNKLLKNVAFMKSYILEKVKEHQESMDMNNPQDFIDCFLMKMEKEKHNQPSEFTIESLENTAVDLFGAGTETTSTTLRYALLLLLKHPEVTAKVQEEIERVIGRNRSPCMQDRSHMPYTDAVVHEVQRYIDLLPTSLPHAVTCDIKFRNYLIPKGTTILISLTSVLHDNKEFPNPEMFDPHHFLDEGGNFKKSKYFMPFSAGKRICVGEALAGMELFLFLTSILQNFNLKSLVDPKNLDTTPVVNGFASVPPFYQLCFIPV
Procedure: as §1, §2, §3, §4, §5, §6

[3] = biological target: T4, HTR2B Human 5-Hydroxytryptamine GPCR (Homo sapiens, UniProt P41595); assay: HTR2B GPCR calcium assay, 86-0030P-2091AG; assay type: cell-based
T4 construct: 86-0030P-2091AN
T4 sequence (P41595 whole entry): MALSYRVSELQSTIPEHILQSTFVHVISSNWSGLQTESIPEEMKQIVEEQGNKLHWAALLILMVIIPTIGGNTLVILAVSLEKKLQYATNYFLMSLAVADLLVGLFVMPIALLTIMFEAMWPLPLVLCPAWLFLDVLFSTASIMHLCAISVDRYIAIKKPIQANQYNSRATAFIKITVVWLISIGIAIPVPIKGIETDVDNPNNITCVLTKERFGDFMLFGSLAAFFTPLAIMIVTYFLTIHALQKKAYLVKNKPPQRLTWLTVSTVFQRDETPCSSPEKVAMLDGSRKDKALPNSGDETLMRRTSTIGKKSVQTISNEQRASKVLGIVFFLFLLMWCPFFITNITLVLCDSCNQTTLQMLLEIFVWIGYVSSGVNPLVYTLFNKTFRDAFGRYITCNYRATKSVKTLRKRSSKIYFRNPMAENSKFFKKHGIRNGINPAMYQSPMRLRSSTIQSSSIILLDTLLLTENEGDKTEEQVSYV
Description: 1.4.2 Further functional off-target assays (Eurofins)
Table S8. Compound 24 was further tested in the following functional assays at Eurofins.
ASSAY NAME ESTIMATED IC50 [µM] […]
(§7) FLIPR Assay expressed in HEK293 cells
GABAA α5/β3/γ2 ionotropic receptor (human GABRA5, GABRB3, >30
and GABRG2 genes, expressed in HEK293 cells

[4] = biological target: T5, CFTR cystic fibrosis transmembrane conductance regulator (Homo sapiens, UniProt P13569); assay: Ion channel profiling at Charles River: CFTR; assay type: cell-based; details: expressed in CHO cells; read-out: ESTIMATED IC50
T5 construct: host or cells: CHO cells
T5 sequence (P13569 whole entry): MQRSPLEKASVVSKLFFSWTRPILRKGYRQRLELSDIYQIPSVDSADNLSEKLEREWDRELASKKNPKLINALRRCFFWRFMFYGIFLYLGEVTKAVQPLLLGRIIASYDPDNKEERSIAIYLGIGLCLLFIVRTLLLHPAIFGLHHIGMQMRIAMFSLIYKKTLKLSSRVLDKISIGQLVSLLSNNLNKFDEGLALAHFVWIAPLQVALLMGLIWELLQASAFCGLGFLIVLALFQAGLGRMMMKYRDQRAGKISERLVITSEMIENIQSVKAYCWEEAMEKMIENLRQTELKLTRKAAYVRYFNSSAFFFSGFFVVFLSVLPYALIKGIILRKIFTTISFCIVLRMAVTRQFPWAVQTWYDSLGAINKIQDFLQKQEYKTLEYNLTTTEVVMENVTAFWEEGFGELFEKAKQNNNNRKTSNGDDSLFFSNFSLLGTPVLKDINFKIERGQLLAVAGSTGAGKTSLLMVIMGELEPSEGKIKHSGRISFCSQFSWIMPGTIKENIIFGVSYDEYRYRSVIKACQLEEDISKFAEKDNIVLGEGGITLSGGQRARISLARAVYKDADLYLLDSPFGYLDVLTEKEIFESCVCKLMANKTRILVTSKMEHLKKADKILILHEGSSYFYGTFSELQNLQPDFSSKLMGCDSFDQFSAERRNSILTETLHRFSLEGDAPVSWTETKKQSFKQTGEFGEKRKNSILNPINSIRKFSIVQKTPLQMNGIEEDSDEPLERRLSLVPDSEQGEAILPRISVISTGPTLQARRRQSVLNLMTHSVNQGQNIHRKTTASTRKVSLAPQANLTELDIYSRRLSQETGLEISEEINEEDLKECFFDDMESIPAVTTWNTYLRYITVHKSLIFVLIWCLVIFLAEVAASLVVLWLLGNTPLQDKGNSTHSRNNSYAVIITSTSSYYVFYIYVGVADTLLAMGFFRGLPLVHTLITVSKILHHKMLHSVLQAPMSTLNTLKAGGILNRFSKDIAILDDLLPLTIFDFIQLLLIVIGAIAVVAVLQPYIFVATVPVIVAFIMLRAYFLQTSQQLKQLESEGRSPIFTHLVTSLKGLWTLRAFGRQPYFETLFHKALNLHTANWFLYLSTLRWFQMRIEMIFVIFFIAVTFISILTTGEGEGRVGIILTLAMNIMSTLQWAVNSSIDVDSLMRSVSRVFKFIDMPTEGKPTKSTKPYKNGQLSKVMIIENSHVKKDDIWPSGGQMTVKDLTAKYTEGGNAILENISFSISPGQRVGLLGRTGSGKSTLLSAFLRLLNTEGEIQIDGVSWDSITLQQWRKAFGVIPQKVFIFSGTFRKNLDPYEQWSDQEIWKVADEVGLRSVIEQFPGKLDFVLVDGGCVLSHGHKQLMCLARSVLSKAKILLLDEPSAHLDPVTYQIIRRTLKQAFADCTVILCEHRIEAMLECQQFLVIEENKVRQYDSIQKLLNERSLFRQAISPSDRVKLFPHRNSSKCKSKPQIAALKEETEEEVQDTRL
Procedure: (§8) 1.4.3 Ion Channel Profiling at Charles River
(§9) Table S9. Compound 24 was tested against the following ion channels at Charles River Laboratories. […]
(§10) FASTPatch Assay IK (KCa3.1) calcium-activated potassium channel (human KCNN4 >30 gene) expressed in CHO cells […]
CFTR cystic fibrosis transmembrane conductance regulator (Cl-channel encoded by human CFTR gene) expressed in CHO cells >30 […]
as §7
(§11) GABAA α5/β3/γ2 ionotropic receptor (human GABRA5, GABRB3, >30 and GABRG2 genes, expressed in HEK293 cells

[5] = biological target: T6, GABAA α5/β3/γ2 ionotropic receptor (Homo sapiens, UniProt P18507+P28472+P31644); assay: Ion channel profiling at Charles River: GABAA; assay type: cell-based
T6 construct: host or cells: HEK293 cells
T6 sequence (P31644 32-462): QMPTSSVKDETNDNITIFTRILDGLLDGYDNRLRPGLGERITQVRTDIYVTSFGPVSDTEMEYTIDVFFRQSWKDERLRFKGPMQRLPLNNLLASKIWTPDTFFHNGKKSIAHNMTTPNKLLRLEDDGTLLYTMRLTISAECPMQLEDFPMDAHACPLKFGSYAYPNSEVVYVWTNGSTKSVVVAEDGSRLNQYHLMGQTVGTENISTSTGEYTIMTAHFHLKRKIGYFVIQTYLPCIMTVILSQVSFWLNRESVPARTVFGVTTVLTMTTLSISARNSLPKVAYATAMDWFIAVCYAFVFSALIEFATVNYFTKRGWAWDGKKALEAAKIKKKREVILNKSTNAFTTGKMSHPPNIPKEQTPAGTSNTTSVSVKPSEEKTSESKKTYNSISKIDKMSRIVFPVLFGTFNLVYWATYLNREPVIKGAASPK
T6 sequence (P28472 26-473): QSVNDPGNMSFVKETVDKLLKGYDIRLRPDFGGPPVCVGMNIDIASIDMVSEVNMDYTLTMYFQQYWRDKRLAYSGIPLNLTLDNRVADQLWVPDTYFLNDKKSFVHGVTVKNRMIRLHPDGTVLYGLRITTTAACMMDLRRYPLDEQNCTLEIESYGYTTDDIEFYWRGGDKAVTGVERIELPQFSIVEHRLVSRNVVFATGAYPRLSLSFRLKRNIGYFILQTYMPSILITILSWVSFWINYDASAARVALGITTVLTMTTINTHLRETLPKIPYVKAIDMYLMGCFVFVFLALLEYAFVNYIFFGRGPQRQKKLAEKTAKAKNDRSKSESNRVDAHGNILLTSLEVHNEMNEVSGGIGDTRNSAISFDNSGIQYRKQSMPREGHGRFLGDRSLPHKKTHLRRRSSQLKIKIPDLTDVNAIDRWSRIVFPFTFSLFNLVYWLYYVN
T6 sequence (P18507 40-475): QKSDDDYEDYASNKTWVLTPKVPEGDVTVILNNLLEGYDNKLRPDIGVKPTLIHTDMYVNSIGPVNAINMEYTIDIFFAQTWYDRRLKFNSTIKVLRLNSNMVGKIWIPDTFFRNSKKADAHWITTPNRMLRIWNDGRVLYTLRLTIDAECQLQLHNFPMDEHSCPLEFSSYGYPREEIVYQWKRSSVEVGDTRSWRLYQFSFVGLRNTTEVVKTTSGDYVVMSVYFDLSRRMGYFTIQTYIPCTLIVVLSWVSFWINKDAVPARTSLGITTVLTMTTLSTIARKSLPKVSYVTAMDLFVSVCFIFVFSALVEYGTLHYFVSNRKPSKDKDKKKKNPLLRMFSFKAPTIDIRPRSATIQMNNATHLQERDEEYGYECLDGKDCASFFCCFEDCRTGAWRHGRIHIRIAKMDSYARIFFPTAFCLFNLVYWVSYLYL
Procedure: as §8, §9, §10
(§12) ScreenPatch Assay Kv1.3 potassium channel (human KCNA3 gene) expressed in CHO […]
as §7, §11

TRPC6 channel = biological target: T7, TRPC6 channel (Homo sapiens, UniProt Q9Y210); assay: Ion channel profiling at Charles River: TRPC6; assay type: cell-based; details: expressed in HEK293 cells; read-out: ESTIMATED IC50
T7 construct: host or cells: HEK293 cells
Procedure: as §8, §9, §12, §7
GABAA α5/β3/γ2 ionotropic receptor (human GABRA5, GABRB3, >30 and GABRG2 genes, expressed in HEK293 cells […]
TRPC6 channel (human TRPC6 gene) expressed in HEK293 cells >30 […]
as §4, §5, §6

[6] = test system: Ca2+ channel (L, dihydropyridine site); assay: Cerep panel binding assay; set-up: species or system rat; details: 10 µM, antagonist radioligand
Procedure: 1.4 Safety Pharmacology of Compound 24
1.4.1 Cerep panel (Eurofins)
Compound 24 was further profiled for its off-target interactions against a panel of 44 targets. The
screening was done by Eurofins Pharma Discovery within the SafetyScreen44 Panel (Cerep, ITEM
P270). In all assays binding/functional inhibition was determined at 10 µM.
Table S6. List of binding assays within the CEREP44 off-target panel and binding data for compound

[7] = In vivo PK study, IP, SC and PO; details: male, CD-1, mouse, plasma, 20 mg/kg
Procedure: For pharmacokinetic experiments via the intraperitoneally (IP), subcutaneously (SC) and perorally
(PO) route 4 weeks old outbred male CD-1 mice (Charles River, Netherlands) were used.
were administered 24 at 20 mg/kg intraperitoneally (IP), subcutaneously (SC) and perorally (PO).
About 20 μL of whole blood was collected serially from the lateral tail vein at time points t = 0.25
(only IP and SC), 0.5, 1, 2, 4, and 8 h post administration.
was collected from the heart. Whole blood was collected into Eppendorf tubes coated with 0.5 M EDTA and immediately spun down at 13,000 rpm for 10 min at 4 °C. The plasma was transferred into
a new Eppendorf tube and then stored at −80 °C until analysis.

With `CC(C)Oc1ccc(-c2ncc(CNc3ccnc(C(F)(F)F)c3)cn2)cc1Cl` [Compound 24] the “Production of pyocyanin by clinical isolates” value [1] was “dramatic reduction”, the half-life [2] was 9 min and the IC50 (CYP3A4; Metabolic activity, activation observed) was > 25 µM. For the same compound, the CYP3A4 activation (CYP3A4; at 10 × 10^−6 M) was > 50%, the IC50 (CYP2D6) was > 25 µM and the IC50 (CYP2C9) was > 25 µM. For the same compound, the IC50 [3] was > 10 µM, the IC50 [4] was > 30 µM and the IC50 [5] was > 30 µM. The IC50 (TRPC6 channel) was > 30 µM, the “BINDING (%)” value [6] was 75.3% and > 50% and the bioavailability ([7]; intraperitoneal) was ~36%. For the same compound, the AUC(0-t) ([7]; ip) was 557 µg·h/mL, the CL/F ([7]; ip) was 1.7 ± 1.8 mL/min/kg and the Cmax ([7]; ip) was 65.8 µg/mL. The Tmax ([7]; ip) was 1 h, the Vd/F ([7]; ip) was 0.25 ± 0.3 L/kg and the bioavailability ([7]; ip) was 36.1%. The half-life ([7]; ip) was 1.68 h, the CL/F ([7]; po) was 1.58 ± 0.4 mL/min/kg and the Cmax ([7]; po) was 45.6 µg/mL. For the same compound, the Tmax ([7]; po) was 0.83 ± 0.2 h, the Vd/F ([7]; po) was 0.25 L/kg and the bioavailability ([7]; po) was 13.8%. The half-life ([7]; po) was 1.9 ± 0.5 h, the AUC(0-t) ([7]; sc) was 363 µg·h/mL and the CL/F ([7]; sc) was 0.93 ± 0.1 mL/min/kg. It also gave a Tmax ([7]; sc) of 2 h, a Vd/F ([7]; sc) of 0.12 L/kg and a bioavailability ([7]; sc) of 23.5%. For the same compound, the half-life ([7]; sc) was 1.51 h.
